Measurements from patent publication US20260273110A1, “Radiolabeled Fibroblast Activation Protein Inhibitors and Methods of Making Same” (REGENTS OF THE UNIVERSITY OF MICHIGAN, priority 2023, published 2026).
Read-outs that look alike come from different tables or passages of the source.

Key:
FAP = target: T1, FAP (Homo sapiens, UniProt Q12884); conditions: cited from earlier work; for tumor to kidney ratio: [^177Lu] agent
T1 sequence (Q12884 1-760): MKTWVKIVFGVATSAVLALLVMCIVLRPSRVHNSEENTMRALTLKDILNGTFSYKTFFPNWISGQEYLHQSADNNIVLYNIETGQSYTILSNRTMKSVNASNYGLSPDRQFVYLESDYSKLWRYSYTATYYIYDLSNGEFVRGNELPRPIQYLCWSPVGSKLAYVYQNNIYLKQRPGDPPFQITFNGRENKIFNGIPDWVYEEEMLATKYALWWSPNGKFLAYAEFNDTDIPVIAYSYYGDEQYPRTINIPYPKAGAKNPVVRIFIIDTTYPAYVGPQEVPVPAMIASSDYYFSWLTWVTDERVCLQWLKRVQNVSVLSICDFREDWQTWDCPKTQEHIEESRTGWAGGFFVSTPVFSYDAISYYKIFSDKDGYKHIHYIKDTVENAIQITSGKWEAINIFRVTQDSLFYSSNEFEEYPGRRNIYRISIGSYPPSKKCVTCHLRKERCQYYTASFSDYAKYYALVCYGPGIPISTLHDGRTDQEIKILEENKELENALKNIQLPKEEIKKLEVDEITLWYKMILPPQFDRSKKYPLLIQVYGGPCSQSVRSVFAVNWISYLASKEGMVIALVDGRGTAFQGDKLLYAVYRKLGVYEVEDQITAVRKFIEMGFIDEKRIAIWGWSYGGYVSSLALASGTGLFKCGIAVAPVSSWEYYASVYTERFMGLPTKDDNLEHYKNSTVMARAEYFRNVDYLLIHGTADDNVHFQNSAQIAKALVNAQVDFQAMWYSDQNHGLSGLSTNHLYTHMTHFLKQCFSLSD

[1] = Ib-3 uptake and dosimetry studies in rats; human estimated dosimetry (OLINDA/EXM 2.0); type: in vivo, Sprague-Dawley rats; conditions: estimates of human dosimetry from rat distribution data
Experimental: Uptake and dosimetry studies of (S)—N-(2-(2-cyanopyrrolidin-1-yl)-2-oxoethyl)-6-fluroquinoline-4-carboxamide (Ib-3) were performed in Sprague-Dawley rats (n=4, 2 males, 2 females) at 10, 20, 60, and 120 min. Rats were anesthetized with isoflurane, and (S)—N-(2-(2-cyanopyrrolidin-1-yl)-2-oxoethyl)-6-fluroquinoline-4-carboxamide (Ib-3) was administered via tail vein injections. At the appropriate time points, animals were euthanized, and their tissues procured for measuring radioactivity. Radioactivity was measured in a well counter and expressed as decay-corrected percentage injected dose per gram of tissue. Radiation dosimetry was calculated from the distribution data and was used to determine estimates of human dosimetry with OLINDA/EXM 2.0 software, or equivalent.
Human estimated dosimetry is given in Table 1, below, in mSv/MBq injected for each organ for males, females, and gender averaged: […]

CN(CCCN1CCN(C(=O)CN2CCN(CC(=O)O)CCN(CC(=O)O)CCN(CC(=O)O)CC2)CC1)c1ccc2nccc(C(=O)NCC(=O)N3CC(F)(F)C[C@H]3C#N)c2c1 [FAPI-46]
tumor to background ratio relative to FAP-2286 (FAP; [^68Ga] agent, early time points): 3-5 times | tumor to kidney ratio (FAP; 3 h): 21.0 | tumor to kidney ratio (FAP; 24 hours): 12.7 | tumor to kidney ratio (FAP; 72 h): 8

N#C[C@@H]1CCCN1C(=O)CNC(=O)c1ccnc2ccc([18F])cc12 [Ib-3, (S)—N-(2-(2-cyanopyrrolidin-1-yl)-2-oxoethyl)-6-[18F]fluoroquinoline-4-carboxamide]
Human estimated dosimetry: Adrenals ([1]; Females): 1.02E−02 mSv/MBq | Human estimated dosimetry: Brain ([1]; Females): 3.83E−03 mSv/MBq | Human estimated dosimetry: Breasts ([1]; Females): 1.23E−02 mSv/MBq | Human estimated dosimetry: Effective Dose ([1]; Females): 1.39E−02 mSv/MBq | Human estimated dosimetry: Esophagus ([1]; Females): 1.29E−02 mSv/MBq | Human estimated dosimetry: Eyes ([1]; Females): 6.79E−03 mSv/MBq | Human estimated dosimetry: Gallbladder Wall ([1]; Females): 1.64E−02 mSv/MBq | Human estimated dosimetry: Heart Wall ([1]; Females): 1.46E−02 mSv/MBq | Human estimated dosimetry: Kidneys ([1]; Females): 1.48E−02 mSv/MBq | Human estimated dosimetry: Left colon ([1]; Females): 2.18E−02 mSv/MBq | Human estimated dosimetry: Liver ([1]; Females): 9.11E−03 mSv/MBq | Human estimated dosimetry: Lungs ([1]; Females): 9.36E−03 mSv/MBq | Human estimated dosimetry: Osteogenic Cells ([1]; Females): 1.90E−02 mSv/MBq | Human estimated dosimetry: Ovaries ([1]; Females): 1.40E−02 mSv/MBq | Human estimated dosimetry: Pancreas ([1]; Females): 1.19E−02 mSv/MBq | Human estimated dosimetry: Rectum ([1]; Females): 1.94E−02 mSv/MBq | Human estimated dosimetry: Red Marrow ([1]; Females): 1.58E−02 mSv/MBq | Human estimated dosimetry: Right colon ([1]; Females): 1.99E−02 mSv/MBq | Human estimated dosimetry: Salivary Glands ([1]; Females): 1.34E−02 mSv/MBq | Human estimated dosimetry: Small Intestine ([1]; Females): 2.75E−02 mSv/MBq | Human estimated dosimetry: Spleen ([1]; Females): 1.00E−02 mSv/MBq | Human estimated dosimetry: Stomach Wall ([1]; Females): 1.69E−02 mSv/MBq | Human estimated dosimetry: Thymus ([1]; Females): 1.50E−02 mSv/MBq | Human estimated dosimetry: Thyroid ([1]; Females): 1.38E−02 mSv/MBq | Human estimated dosimetry: Total Body ([1]; Females): 1.49E−02 mSv/MBq | Human estimated dosimetry: Urinary Bladder Wall ([1]; Females): 3.42E−02 mSv/MBq | Human estimated dosimetry: Uterus ([1]; Females): 1.49E−02 mSv/MBq | Human estimated dosimetry: Adrenals ([1]; Gender Averaged): 9.65E−03 mSv/MBq | Human estimated dosimetry: Brain ([1]; Gender Averaged): 3.31E−03 mSv/MBq | Human estimated dosimetry: Breasts ([1]; Gender Averaged): 1.23E−02 mSv/MBq | Human estimated dosimetry: Effective Dose ([1]; Gender Averaged): 1.25E−02 mSv/MBq | Human estimated dosimetry: Esophagus ([1]; Gender Averaged): 1.21E−02 mSv/MBq | Human estimated dosimetry: Eyes ([1]; Gender Averaged): 6.09E−03 mSv/MBq | Human estimated dosimetry: Gallbladder Wall ([1]; Gender Averaged): 1.49E−02 mSv/MBq | Human estimated dosimetry: Heart Wall ([1]; Gender Averaged): 1.26E−02 mSv/MBq | Human estimated dosimetry: Kidneys ([1]; Gender Averaged): 1.52E−02 mSv/MBq | Human estimated dosimetry: Left colon ([1]; Gender Averaged): 1.99E−02 mSv/MBq | Human estimated dosimetry: Liver ([1]; Gender Averaged): 8.47E−03 mSv/MBq | Human estimated dosimetry: Lungs ([1]; Gender Averaged): 8.27E−03 mSv/MBq | Human estimated dosimetry: Osteogenic Cells ([1]; Gender Averaged): 1.84E−02 mSv/MBq | Human estimated dosimetry: Ovaries ([1]; Gender Averaged): 1.40E−02 mSv/MBq | Human estimated dosimetry: Pancreas ([1]; Gender Averaged): 1.10E−02 mSv/MBq | Human estimated dosimetry: Prostate ([1]; Gender Averaged): 1.66E−02 mSv/MBq | Human estimated dosimetry: Rectum ([1]; Gender Averaged): 1.78E−02 mSv/MBq | Human estimated dosimetry: Red Marrow ([1]; Gender Averaged): 1.43E−02 mSv/MBq | Human estimated dosimetry: Right colon ([1]; Gender Averaged): 1.82E−02 mSv/MBq | Human estimated dosimetry: Salivary Glands ([1]; Gender Averaged): 1.26E−02 mSv/MBq | Human estimated dosimetry: Small Intestine ([1]; Gender Averaged): 2.59E−02 mSv/MBq | Human estimated dosimetry: Spleen ([1]; Gender Averaged): 9.10E−03 mSv/MBq | Human estimated dosimetry: Stomach Wall ([1]; Gender Averaged): 1.55E−02 mSv/MBq | Human estimated dosimetry: Testes ([1]; Gender Averaged): 7.86E−03 mSv/MBq | Human estimated dosimetry: Thymus ([1]; Gender Averaged): 1.34E−02 mSv/MBq | Human estimated dosimetry: Thyroid ([1]; Gender Averaged): 1.29E−02 mSv/MBq | Human estimated dosimetry: Total Body ([1]; Gender Averaged): 1.37E−02 mSv/MBq | Human estimated dosimetry: Urinary Bladder Wall ([1]; Gender Averaged): 4.15E−02 mSv/MBq | Human estimated dosimetry: Uterus ([1]; Gender Averaged): 1.49E−02 mSv/MBq | Human estimated dosimetry: Adrenals ([1]; Males): 9.10E−03 mSv/MBq | Human estimated dosimetry: Brain ([1]; Males): 2.79E−03 mSv/MBq | Human estimated dosimetry: Effective Dose ([1]; Males): 1.10E−02 mSv/MBq | Human estimated dosimetry: Esophagus ([1]; Males): 1.13E−02 mSv/MBq | Human estimated dosimetry: Eyes ([1]; Males): 5.39E−03 mSv/MBq | Human estimated dosimetry: Gallbladder Wall ([1]; Males): 1.33E−02 mSv/MBq | Human estimated dosimetry: Heart Wall ([1]; Males): 1.06E−02 mSv/MBq | Human estimated dosimetry: Kidneys ([1]; Males): 1.56E−02 mSv/MBq | Human estimated dosimetry: Left colon ([1]; Males): 1.80E−02 mSv/MBq | Human estimated dosimetry: Liver ([1]; Males): 7.83E−03 mSv/MBq | Human estimated dosimetry: Lungs ([1]; Males): 7.17E−03 mSv/MBq | Human estimated dosimetry: Osteogenic Cells ([1]; Males): 1.78E−02 mSv/MBq | Human estimated dosimetry: Pancreas ([1]; Males): 1.00E−02 mSv/MBq | Human estimated dosimetry: Prostate ([1]; Males): 1.66E−02 mSv/MBq | Human estimated dosimetry: Rectum ([1]; Males): 1.62E−02 mSv/MBq | Human estimated dosimetry: Red Marrow ([1]; Males): 1.27E−02 mSv/MBq | Human estimated dosimetry: Right colon ([1]; Males): 1.65E−02 mSv/MBq | Human estimated dosimetry: Salivary Glands ([1]; Males): 1.17E−02 mSv/MBq | Human estimated dosimetry: Small Intestine ([1]; Males): 2.42E−02 mSv/MBq | Human estimated dosimetry: Spleen ([1]; Males): 8.20E−03 mSv/MBq | Human estimated dosimetry: Stomach Wall ([1]; Males): 1.40E−02 mSv/MBq | Human estimated dosimetry: Testes ([1]; Males): 7.86E−03 mSv/MBq | Human estimated dosimetry: Thymus ([1]; Males): 1.18E−02 mSv/MBq | Human estimated dosimetry: Thyroid ([1]; Males): 1.20E−02 mSv/MBq | Human estimated dosimetry: Total Body ([1]; Males): 1.25E−02 mSv/MBq | Human estimated dosimetry: Urinary Bladder Wall ([1]; Males): 4.87E−02 mSv/MBq
